According to patent US7476650B2, “Enzyme inhibition” (Yale University, priority 1999, dated 2009):

What was measured:
[1] = tested on: bovine aortic endothelial (BAE) cells; test: BAE cell proliferation ([methyl-3H]-thymidine incorporation); format: cell-based
Procedure: BAE cells were cultured at 7% CO2 and were grown in DMEM supplemented with 10% FBS, 1% penicillin/streptomycin (GIBCO), and 1 mM sodium pyruvate.
Approximately 1000 BAE cells were plated into each well of a 96-well culture plate. After an overnight incubation, different concentrations of proteasome inhibitors were added and incubation was continued for another five days. […] Subsequently, 74 kBq of [methyl-^3H]-thymidine was added to each well of the plate and the plate was incubated for another additional 4 hours. Cells were harvested using a Skatron Cell Harvester and incorporated radioactivity was quantified using liquid scintillation. Proliferation of BAE cells was assayed in triplicate in the presence of different concentrations of peptide epoxides.
Perturbation of the proteasome activity can result in inhibition of cell growth, and can further lead to cell death at elevated concentration of the proteasome inhibitors. This provides an excellent cell-based assay to assess the importance of each catalytic activity of the 20S proteasome in degradation of proteins involved in cell growth. We measured inhibition of proliferation of bovine aortic endothelial (BAE) cells with our α′,β′-epoxyketone-based inhibitors with varying degree of specificity for the PGPH activity.

[2] = molecular target: T1, chymotrypsin-like activity of purified bovine erythrocyte 20S proteasome (Bos taurus, UniProt Q32KL2); test: Enzyme kinetic assay, chymotrypsin-like activity (Suc-LLVY-AMC); format: biochemical; conditions: for kobs/[I] for chymotryptic-like activity using Suc-LLVY-AMC: Examples 9 and 10, in M-1s-1; for kassoc = kobs/[I] (chymotrypsin-like activity inhibition): Table 5; for kobs/[I] Chymotrypsin-like: Table 3; for kinact/KI: pH 8, Table 4, inhibitor concentration range in parentheses, read-out: kassoc = kobs/[I] Chymotrypsin-like activity
T1 construct: from tissue; host or cells: bovine erythrocytes (red blood cells)
Text: (§1) We investigated the potency of inhibitors of various length. Mono-, di-,tri- and tetraleucine α′,β′-epoxides were ranked by determination of the kobs/[I] values for inhibition of the chymotrypsin-like, trypsin-like, and PGPH activities of purified bovine erythrocyte 20S proteasome.
(§2) Purified bovine erythrocyte proteasome was enzymatically assayed using a variety of different substrates and inhibitors. In order to evaluate the rates of proteolytic inactivation by inhibitors, kassociation (kobs/[I]) values were determined using fluorogenic peptide substrates over a range of inhibitor concentrations.

[3] = molecular target: T2, trypsin-like activity of purified bovine erythrocyte 20S proteasome (Bos taurus, UniProt Q2TBP0); test: Enzyme kinetic assay, trypsin-like activity (Boc-LRR-AMC); format: biochemical; conditions: for kobs/[I] for tryptic-like activity using Boc-LRR-AMC: Examples 9 and 10; for inhibition of the trypsin-like activity of the proteasome: in words; for kobs/[I] Trypsin-like: Table 3; for kinact/KI: pH 8, Table 4, inhibitor concentration range in parentheses, read-out: kassoc = kobs/[I] Trypsin-like activity
T2 construct: from tissue; host or cells: bovine erythrocytes (red blood cells)
Text: as §1, §2

[4] = molecular target: T3, PGPH activity of purified bovine erythrocyte 20S proteasome (Bos taurus, UniProt Q3MHN0); test: Enzyme kinetic assay, PGPH activity (Z-LLE-AMC); format: biochemical; conditions: for kobs/[I] for PGPH activity using Z-LLE-AMC: Examples 9 and 10; for selectivity: fold higher kobs/[I] for inhibition of the PGPH activity than the chymotrypsin-like activity: PGPH vs chymotrypsin-like; for kobs/[I] PGPH: Table 3; for selectivity for the PGPH activity: in words, data not shown for Glu compounds; for kinact/KI: pH 8, Table 4, inhibitor concentration range in parentheses, read-out: kassoc = kobs/[I] PGPH activity
T3 construct: from tissue; host or cells: bovine erythrocytes (red blood cells)
Procedure: We investigated the potency of inhibitors of various length. Mono-, di-,tri- and tetraleucine α′,β′-epoxides were ranked by determination of the kobs/[I] values for inhibition of the chymotrypsin-like, trypsin-like, and PGPH activities of purified bovine erythrocyte 20S proteasome. Enzyme kinetic assays were performed as described in Example 2.
as §2

[5] = Table 6, PGPH-directed inhibitors

| Molecule | kobs/[I] for chymotryptic-like activity using Suc-LLVY-AMC [2] | kobs/[I] for tryptic-like activity using Boc-LRR-AMC [3] | kobs/[I] for PGPH activity using Z-LLE-AMC [4] | kobs/[I] Chymotrypsin-like [2] | kobs/[I] PGPH [4] | also measured |
| --- | --- | --- | --- | --- | --- | --- |
| CC(=O)N[C@@H](C)C(=O)N[C@@H](CC(C)C)C(=O)N[C@@H](CC(C)C)C(=O)N[C@@H](CC(C)C)C(=O)[C@@]1(C)CO1 [Ac-ALLL-epoxide] | 5,300 | 3.8 M⁻¹ s⁻¹ | 220 | – | – | IC50 ([1]; Table 5, five days incubation): 83 nM; kassoc = kobs/[I] (chymotrypsin-like activity inhibition) [2]: 5300 M⁻¹ s⁻¹ |
| CC(=O)NCC(=O)N1CCC[C@H]1C(=O)N[C@@H](Cc1ccccc1)C(=O)N[C@@H](CC(C)C)C(=O)C1(C)CO1 (stereo partly drawn) [Ac-GPFL-Ex] | – | – | – | 5 ± 1 M⁻¹ s⁻¹ | 190 ± 10 M⁻¹ s⁻¹ | IC50 [1, 5]: 58000 nM; inhibition of the trypsin-like activity of the proteasome [3]: no inhibition; selectivity: fold higher kobs/[I] for inhibition of the PGPH activity than the chymotrypsin-like activity [4]: 35 fold |
| CC[C@H](C)[C@H](NC(C)=O)C(=O)N[C@H](C(=O)N[C@@H](CC(C)C)C(=O)[C@@]1(C)CO1)C(C)C [Ac-IVL-Ex] | – | – | – | 5 ± 0.1 M⁻¹ s⁻¹ | 14.6 ± 4.2 M⁻¹ s⁻¹ | kobs/[I] Trypsin-like [3]: 6.7 ± 0.1 M⁻¹ s⁻¹ |
| CC(=O)N[C@@H](CC(C)C)C(=O)N[C@@H](C)C(=O)N[C@@H](CC(C)C)C(=O)N[C@@H](CC(C)C)C(=O)[C@@]1(C)CO1 [Ac-LALL-epoxide] | 1,300 | 2 M⁻¹ s⁻¹ | 130 | – | – | IC50 ([1]; Table 5, five days incubation): 700 nM; kassoc = kobs/[I] (chymotrypsin-like activity inhibition) [2]: 1300 M⁻¹ s⁻¹ |
| CC(=O)N[C@@H](CC(C)C)C(=O)N[C@@H](Cc1ccccc1)C(=O)N[C@@H](CC(C)C)C(=O)N[C@@H](CC(C)C)C(=O)[C@@]1(C)CO1 [Ac-LFLL-epoxide] | 8,500 | not measurable | not measurable | – | – | IC50 ([1]; Table 5, five days incubation): 16 nM; kassoc = kobs/[I] (chymotrypsin-like activity inhibition) [2]: 8500 M⁻¹ s⁻¹ |
| CC(=O)N[C@@H](CC(C)C)C(=O)N[C@@H](CC(C)C)C(=O)N[C@@H](C)C(=O)N[C@@H](CC(C)C)C(=O)[C@@]1(C)CO1 [Ac-LLAL-epoxide] | 16,000 | 4.1 M⁻¹ s⁻¹ | 20 | – | – | IC50 ([1]; Table 5, five days incubation): 34 nM; kassoc = kobs/[I] (chymotrypsin-like activity inhibition) [2]: 16,000 M^−1 s^−1 |
| CC(=O)N[C@@H](CC(C)C)C(=O)N[C@@H](CC(C)C)C(=O)N[C@@H](Cc1ccccc1)C(=O)N[C@@H](CC(C)C)C(=O)[C@@]1(C)CO1 [Ac-LLFL-epoxide] | 54,000 | not measurable | not measurable | – | – | IC50 ([1]; Table 5, five days incubation): 7 nM; kassoc = kobs/[I] (chymotrypsin-like activity inhibition) [2]: 54,000 M^−1 s^−1 |
| CCCC[C@H](NC(C)=O)C(=O)N1CCC[C@H]1C(=O)N[C@@H](Cc1ccccc1)C(=O)N[C@@H](CC(C)C)C(=O)[C@@]1(C)CO1 [Ac-NorLPFL-Ex] | – | – | – | 1.9 ± 0.6 M⁻¹ s⁻¹ | 115 ± 15 M⁻¹ s⁻¹ | IC50 [1, 5]: 53000 nM; inhibition of the trypsin-like activity of the proteasome [3]: no inhibition; selectivity: fold higher kobs/[I] for inhibition of the PGPH activity than the chymotrypsin-like activity [4]: 60 fold |
| CC(C)CCCCC(=O)N1CCC[C@H]1C(=O)N[C@@H](Cc1ccccc1)C(=O)N[C@@H](CC(C)C)C(=O)[C@@]1(C)CO1 [Isooctanioc-PFL-Ex] | – | – | – | 190 ± 60 M⁻¹ s⁻¹ | 194 ± 4 M⁻¹ s⁻¹ | IC50 [1, 5]: 600 nM; inhibition of the trypsin-like activity of the proteasome [3]: no inhibition; selectivity for the PGPH activity [4]: no selectivity |
| CC(C)C[C@H](NC(=O)[C@H](Cc1ccccc1)NC(=O)[C@@H]1CCCN1C(=O)c1ccc(N(C)C)cc1)C(=O)[C@@]1(C)CO1 [N-dimethylaminobenzoyl-PFL-EX] | – | – | – | 220 ± 70 M⁻¹ s⁻¹ | 150 ± 40 M⁻¹ s⁻¹ | IC50 [1, 5]: 400 nM; inhibition of the trypsin-like activity of the proteasome [3]: no inhibition; selectivity for the PGPH activity [4]: no selectivity |
| CC(=O)N[C@@H](CC(C)C)C(=O)N[C@@H](CC(C)C)C(=O)N[C@@H](Cc1cccc2ccccc12)C(=O)N[C@@H](CC(C)C)C(=O)[C@@]1(C)CO1 [P2 1-naphthyl] | 29,000 | not measurable | not measurable | – | – | – |
| CC(=O)N[C@@H](CC(C)C)C(=O)N[C@@H](Cc1cccc2ccccc12)C(=O)N[C@@H](CC(C)C)C(=O)N[C@@H](CC(C)C)C(=O)[C@@]1(C)CO1 [P3 1-naphthyl] | 31,000 | not measurable | not measurable | – | – | – |
| CC(=O)N[C@@H](Cc1cccc2ccccc12)C(=O)N[C@@H](CC(C)C)C(=O)N[C@@H](CC(C)C)C(=O)N[C@@H](CC(C)C)C(=O)[C@@]1(C)CO1 [P4 I -naphthyl] | 29,000 | not measurable | not measurable | – | – | – |
| CC(=O)N[C@@H](CCc1ccccc1)C(=O)N[C@@H](CC(C)C)C(=O)N[C@@H](CC(C)C)C(=O)N[C@@H](CC(C)C)C(=O)[C@@]1(C)CO1 [P4 methylphenyl] | 63,000 | 5.4 M⁻¹ s⁻¹ | 50 | – | – | – |
| CC(=O)N[C@@H](Cc1ccc(C(=O)c2ccccc2)cc1)C(=O)N[C@@H](CC(C)C)C(=O)N[C@@H](CC(C)C)C(=O)N[C@@H](CC(C)C)C(=O)[C@@]1(C)CO1 [P4 p-benzoylphenyl] | 23,000 | not measurable | not measurable | – | – | – |
| CC(=O)N[C@@H](Cc1ccccc1)C(=O)N[C@@H](CC(C)C)C(=O)N[C@@H](CC(C)C)C(=O)N[C@@H](CC(C)C)C(=O)[C@@]1(C)CO1 [P4 phenyl] | 37,000 | 5.5 M⁻¹ s⁻¹ | 78 | – | – | – |
| CC(C)C[C@H](NC(=O)[C@@H](N)CCc1ccccc1)C(=O)N[C@@H](Cc1ccccc1)C(=O)N[C@@H](CC(C)C)C(=O)[C@@]1(C)CO1 [compound 18] | 5200 | 580 M⁻¹ s⁻¹ | – | – | – | kinact/KI [2]: 5200 M⁻¹ s⁻¹; kinact/KI [3]: 580 M⁻¹ s⁻¹; kinact/KI [4]: 11 M⁻¹ s⁻¹ |
| CC(C)[C@H](O)[C@@]12NC(=O)[C@H](C)[C@@H]1OC2=O [drawing 17, reference compound] | – | – | – | – | – | kinact/KI [2]: 7400 M⁻¹ s⁻¹; kinact/KI [3]: 68 M⁻¹ s⁻¹; kinact/KI [4]: 47 M⁻¹ s⁻¹ |
| CC(C)C[C@@H](/C=C/S(C)(=O)=O)NC(=O)[C@H](CC(C)C)NC(=O)[C@H](CC(C)C)NC(=O)Cc1cc(N)c(O)c(I)c1 [reference compound] | – | – | – | – | – | kinact/KI [2]: 5000 M⁻¹ s⁻¹; kinact/KI [3]: 3.4 M⁻¹ s⁻¹; kinact/KI [4]: 4 M⁻¹ s⁻¹ |
| isooctanoyl-Ser-Leu-α′,β′-epoxyketone [Eponemycin, reference compound] | – | – | – | 58 ± 14 M⁻¹ s⁻¹ | 175 ± 2 M⁻¹ s⁻¹ | kobs/[I] Trypsin-like [3]: 17 ± 3 M⁻¹ s⁻¹; selectivity for the PGPH activity [4]: modest selectivity toward the PGPH activity |
